Earlier results in patent US20060153940A1, “Use of physiologically active fatty acids” (priority 2004, published 2006).

## β-escin
alcohol
  solubility in alcohol: can be dissolved in alcohol
water
  solubility in water: practically water-insoluble
